Among the data in patent US20260071187A1, “MOLECULARLY CLEAVABLE BIOINK FORMULATION” (THE BRIGHAM AND WOMEN'S HOSPITAL, INC., priority 2022, published 2026) are burst frequency, mean firing rate and firing values, retold here.

The subject of one assay is AMPA receptor. The assay is described as follows: MEA recording with pharmacological intervention (NBQX). It is filed as cell-based, human. Conditions: NBQX 10 μM, Hase-1000 samples at week 4, vs DMSO. How it is done:
(§1) MEA recording of 3D-bioprinted mini-brains was performed from week 1 to week 4 after differentiation (day 10 to day 31 after digestion). The samples containing SNaPs were plated on Geltrex-coated 12-well MEA plates (Axion Biosystems, USA) in the differentiation medium. The samples were fed 2-3 times a week with partial medium change. Neuronal activities were measured every week using the Maestro 12-well MEA plate system (Axion Biosystems) for 5 min. After 4 weeks of culture in MEA plate, synaptic contents were tested using pharmacological inhibitors of neurotransmitter receptors. Specifically, neuronal activity was measured for 5 min by adding DMSO control before adding 10 μM of NBQX (Abcam) or 10 μM of D-APV (Abcam). The samples were incubated for 5-10 min, and neuronal activities were assessed again for 5 min. All the MEA data were analyzed using the Axion Integrated Studio 2.4.2 and the Neural Metric Tool (Axion Biosystems).

A further assay deals with NMDA receptor. The assay is described as follows: MEA recording with pharmacological intervention (D-APV). Type of assay: cell-based, human. Conditions: D-APV 50 μM (FIG. 8g legend), Hase-1000 samples at week 4, vs DMSO. Here is the method: as §1, with “Specifically, neuronal activity was measured for 5 min by adding DMSO control before adding 10 μM of NBQX (Abcam) or 10 μM of D-APV (Abcam).” left out

Take `NS(=O)(=O)c1cccc2c1c([N+](=O)[O-])cc1nc(O)c(O)nc12` [NBQX, 2,3-dihydroxy-6-nitro-7-sulfamoyl-benzo(F)quinoxaline]: in the assay on AMPA receptor, the burst frequency entry was “significantly reduced” and the mean firing rate entry is “significantly reduced”.
`N[C@H](CCCP(=O)(O)O)C(=O)O` [D-APV, D-2-amino-5-phosphonovaleric acid]: in the assay on NMDA receptor, the burst frequency entry is recorded as “significantly reduced” and the firing entry is “significantly reduced”.
